# Patent US20120027687A1, “FATTY ACID PROTEIN KINASE C ACTIVATORS AND ANTICOAGULANT FOR THE TREATMENT OF STROKE” (priority 2010, published 2012)
# Where two headings read alike, the source gives them in different places.
# Columns and labels:
# PKC [1] = test: PKC activation over time in H19-7/IGF-IR hippocampal cells; format: cell-based, rat
# Experimental: (§1) Cell culture. Rat hippocampal H19-7/IGF-IR cells (ATCC, Manassas, Va.) were plated onto poly-L-lysine coated plates and grown at 35° C. in DMEM/10% FCS for several days until about 50% coverage was obtained. The cells were then induced to differentiate into a neuronal phenotype by replacing the medium with 5 ml N2 medium containing 10 ng/ml basic fibroblast growth factor at 39° C. and grown in T-75 flasks at 37° C. Human SH-SY5Y neuroblastoma cells (ATCC) were cultured in 45% F12K/45% MEM/10% FCS. Mouse N2A neuroblastoma cells were cultured in DMEM/10% FCS without glutamine. Rat hippocampal neurons from 18-day-old embryonic Sprague Dawley rat brains were plated on 12- or 96-well plates coated with poly-D-lysine (Sigma-Aldrich, St. Louis, Mo.) in B-27 neurobasal medium containing 0.5 mM glutamine and 25 μM glutamate (Invitrogen, Carlsbad, Calif.) and cultured for three days in the medium without glutamate. The neuronal cells were grown under 5% CO2 in an incubator maintained at 37° C. for 14 days.
# Protein kinase C assay. Rat hippocampal cells were cultured and scraped in 0.2 ml homogenization buffer (20 mM Tris-HCl, pH 7.4, 50 mM NaF, 1 μg/ml leupeptin, and 0.1 mM PMSF) and homogenized by sonication a Marsonix microprobe sonicator (5 sec, 10W). To measure PKC, 10 μl of cell homogenate or purified PKC isozyme (purchased from Calbiochem) was incubated for 15 min at 37° C. in the presence of 10 μM histones, 4.89 mM CaCl2, 1.2 μg/μl phosphatidyl-L-serine, 0.18 μg/μl 1,2-dioctanoyl-sn-glycerol, 10 mM MgCl2, 20 mM HEPES (pH 7.4), 0.8 mM EDTA, 4 mM EGTA, 4% glycerol, 8 μg/ml aprotinin, 8 μg/ml leupeptin, and 2 mM benzamidine. 0.5 Ci [^γ32P]ATP was added and ^32P-phosphoprotein formation was measured by adsorption onto phosphocellulose as described previously. Nelson and Alkon, J. Neurochemistry (1995), vol. 65, pp. 2350-2357. For measurements of activation by BR-101 (DCP-LA) and similar compounds. PKC activity was measured in the absence of diacylglycerol and phosphatidylserine and PKC δ, ε, η, and μ were measured in the absence of added EGTA and CaCl2, as described by Kanno et al. (J. Lipid Res. 2006, vol. 47, pp. 1146-1150). Low concentrations of Ca^2+ are used because high Ca^2+ interacts with the PKC phosphatidylserine binding site and prevents activation. For measurements of bryostatin activation, 1,2-diacylglycerol was omitted unless otherwise stated.
# PKC [2] = conditions: read-out: affinity for PKC (EC50); cited from earlier work
# Aβ [3] = test: Aβ production in N2a neuroblastoma cells transfected with human APPSwe/PSID; format: cell-based, mouse; conditions: 24 hours; for levels of intracellular Aβ / levels of secreted Aβ: various concentrations
# Experimental: as §1
# (§2) Aβ Measurement and Cell Viability Assay. Aβ was measured using an Aβ 1-42 human fluorimetric ELISA kit (Invitrogen) according to the manufacturer's instructions. Results were measured in a Biotek Synergy HT microplate reader. AlamarBlue and CyQuant NF (Invitrogen) according to the manufacturer's instructions.
# To measure the effects of PKCε activation on Aβ production, mouse neuro2a (N2a) neuroblastoma cells transfected with human APPSwe/PSID were used, which produce large quantities of Aβ. Petanceska et al., J. Neurochem. (1996), vol. 74, pp. 1878-1884. […] With bryostatin, which activates PKC by binding to the diacylglycerol-binding site, the inhibition was biphasic with concentrations of 20 nM or higher producing no net effect. This may be explained by the ability of this class of PKC activators to downregulate PKC when used at high concentrations.
# [4] = system: SH-SY5Y neuroblastoma cells; test: Cell survival and proliferation (alamar Blue, CyQuant); format: cell-based, human; conditions: alamar Blue and CyQuant staining
# Experimental: as §2
# TACE = TACE activity in neuronal cells; format: cell-based, human, mouse; conditions: SH-SY5Y cells, N2a cells, primary neurons from rat hippocampus
# Experimental: TACE Assay. TACE was measured by incubating 5 μl cell homogenate, 3 μl buffer (50 mM Tris-HCl 7.4 plus 25 mM NaCl plus 4% glycerol), and 1 μl of 100 μM TACE substrate (Aβz-[…]-DPa) (Calbiochem) for 20 min at 37° C. 1.5-ml polypropylene centrifuge tubes. Jin et al., Anal. Biochem. (2002), vol. 302, pp. 269-275. The reaction was stopped by cooling to 4° C. The samples were diluted to 1 ml and the fluorescence was rapidly measured (ex=320 nm, em=420 nm) in a Spex Fluorolog 2 spectrofluorometer.
# [5] = system: Endothelin-converting enzyme (ECE); test: Endothelin-converting enzyme (ECE) activity in neuroblastoma cells; format: cell-based, human; conditions: bryostatin 0.27 nM, BR-101 1 μM, BR-111 1 μM
# Experimental: ECE assay. […] neuroblastoma cells were incubated with bryostatin (0.27 nM), BR-101 (DCP-LA) (1 μM), and BR-111 (DHA-CP6) (1 μM). Endothelin-converting enzyme (ECE) was measured fluorimetrically using the method of Johnson and Ahn (Anal. Biochem. (2000), vol. 286, pp. 112-118). A sample of cell homogenate (20 μl) was incubated in 50 mM MES-KOH, pH 6.0, 0.01% C12E10 (polyoxyethylene-10-lauryl ether), and 15 μM McaBK2 (7-Methoxycoumarin-4-acetyl [Ala7-(2,4-Dinitrophenyl)Lys9]-bradykinin trifluoroacetate salt) (Sigma-Aldrich). After 60 min at 37° C., the reaction was quenched by adding trifluoroacetic acid to 0.5%. The sample was diluted to 1.4 ml with water and the fluorescence was measured at ex=334 nm, em=398 nm.
# α-secretase = conditions: cited from earlier work
# protein kinase C = conditions: (−)-enantiomer; read-out: potency (EC50); cited from earlier work
# PKC [6] = conditions: competition with [3H] phorbol dibutyrate; cited from earlier work
# NIC 60 cell line screen = conditions: cited from earlier work
# PKCε = target: T1, PKCε (Homo sapiens, UniProt Q02156); test: PKC assay with purified PKCε; format: biochemical
# T1 construct: purchased Calbiochem
# T1 sequence (Q02156 1-737): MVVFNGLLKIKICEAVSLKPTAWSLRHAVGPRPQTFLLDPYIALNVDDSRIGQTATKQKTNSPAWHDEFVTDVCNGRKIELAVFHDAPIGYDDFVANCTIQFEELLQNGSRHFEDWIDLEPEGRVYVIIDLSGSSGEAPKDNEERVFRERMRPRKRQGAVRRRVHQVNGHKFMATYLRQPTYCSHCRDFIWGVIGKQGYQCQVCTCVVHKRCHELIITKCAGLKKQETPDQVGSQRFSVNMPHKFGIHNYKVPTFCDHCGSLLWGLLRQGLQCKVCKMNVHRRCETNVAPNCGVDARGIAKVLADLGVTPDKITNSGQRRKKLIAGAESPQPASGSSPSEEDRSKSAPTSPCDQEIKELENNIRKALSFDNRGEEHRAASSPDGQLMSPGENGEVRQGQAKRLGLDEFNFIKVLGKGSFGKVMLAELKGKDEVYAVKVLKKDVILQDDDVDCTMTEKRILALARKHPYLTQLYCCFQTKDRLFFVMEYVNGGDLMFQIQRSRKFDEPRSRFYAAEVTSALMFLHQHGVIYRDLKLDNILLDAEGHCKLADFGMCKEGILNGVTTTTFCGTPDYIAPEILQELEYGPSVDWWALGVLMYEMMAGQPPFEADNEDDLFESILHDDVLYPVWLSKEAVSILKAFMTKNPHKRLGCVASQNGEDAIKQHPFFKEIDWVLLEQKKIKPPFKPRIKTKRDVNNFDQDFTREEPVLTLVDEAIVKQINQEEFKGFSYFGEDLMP
# Experimental: PKC assay. […] 0.5 micro Ci[^γ32P]ATP was added. […] The reaction was stopped by spotting the reaction mixtures on 1×2 cm strips of cellulose phosphate paper (Whatman P81) and immediately washing twice for 1 hr in 0.5% H3PO4. The cellulose phosphate strips were counted in a scintillation counter. In some experiments, phosphatidylserine, diacylglycerol, and/or calcium were removed. […]
# To determine their PKC isozyme specificity, fatty acid derivatives were preincubated with purified PKC for five minutes and the PKC activity was measured radiometrically.
# Aβ [7] = test: Degradation of exogenously applied Aβ in SH-SY5Y cells; format: cell-based, human; conditions: 0.01 μM to 10 μM; 100 nM exogenous Aβ-42; 24 hours
# Experimental: as §1, §2
# This concentration of Aβ is too low to produce measurable toxicity or cell death. […]
smiles,measurement,setting,value
"CCCCCCCCCCCCCC(=O)O[C@@H]1[C@@H](C)[C@@]2(O)[C@@H](C=C(CO)C[C@]3(O)C(=O)C(C)=C[C@@H]23)[C@@H]2C(C)(C)[C@]12OC(C)=O [PMA, phorbol 12-myristate 13-acetate]",PKC activity at 8 hours (downregulation),PKC [1]; data not shown,strongly downregulated
CCC/C=C/C=C/C(=O)O[C@H]1/C(=C/C(=O)OC)C[C@H]2C[C@H]([C@@H](C)O)OC(=O)C[C@H](O)C[C@@H]3C[C@H](OC(C)=O)C(C)(C)[C@](O)(C[C@@H]4C/C(=C/C(=O)OC)C[C@H](/C=C/C(C)(C)[C@]1(O)O2)O4)O3 [Bryostatin-1],PKC downregulation following activation,PKC [1]; 0.04 nM and 0.2 nM,20%
same,time of return of PKC to baseline,PKC [1]; 0.04 nM and 0.2 nM,≤ 24 h
same,PKC activation,"PKC [1]; 0.04 nM and 0.2 nM, data not shown",2 fold
same,PKC activity at 8 hours (downregulation),PKC [1]; data not shown,at or near the baseline
same,levels of intracellular Aβ,Aβ [3],markedly reduced
same,levels of secreted Aβ,Aβ [3],markedly reduced
same,effect on cell survival,[4],no effect
same,TACE activity,TACE,small increases
same,ECE activity,[5],sustained increase
same,increase of initial rate of α-secretase activity,α-secretase; 10 μM,16 fold
same,increase of initial rate of α-secretase activity,α-secretase; 100 μM,132 fold
CCCCCCCCc1ccc2c3c(c[nH]c13)C[C@@H](CO)NC(=O)[C@H](C(C)C)N2C [Octylindolactam V],EC50,protein kinase C,29 nM
"CC1=C[C@]23C(=O)[C@@H](C=C(COC(=O)c4ccccc4)[C@@H](O)[C@]2(O)[C@H]1OC(=O)c1ccccc1)[C@H]1[C@@H](C[C@H]3C)C1(C)C [Ingenol 3,20-dibenzoate]",Ki,PKC [6],240 nM
CC1=CC[C@H](C)C(C)(C)[C@@H]1/C=C/C(C)=C/CC[C@@]1(CO)[C@H](CCCO)/C(=C(/C)C=O)CC[C@]1(C)O [Iripallidal],GI50 (concentration required to inhibit growth by 50%),NIC 60 cell line screen,micromolar to nanomolar range
"CCC1CC1CC1CC1CC1CC1CC1CC1CC1CC1CC1CC1CCC(=O)OC (centres unmarked) [BR-111, methyl-3-(2-((2-((2-((2-((2-((2-ethylcyclopropyl)methyl)cyclopropyl)methyl)cyclopropyl)methyl)-cyclopropyl)methyl)cyclopropyl)methyl)cyclopropyl)propanoate]","concentration needed to activate PKC, times lower than for BR-101 (DCP-LA)",PKCε,approximately 100 times
same,"effect on purified PKCε (FIG. 7, FIG. 8)","PKCε; preincubated five minutes, radiometric",activated
same,levels of intracellular Aβ,Aβ [3],markedly reduced
same,levels of secreted Aβ,Aβ [3],markedly reduced
same,concentration dependence of Aβ inhibition,Aβ [3]; fatty acid derivatives up to 10 μM to 100 μM,monotonically increasing inhibition
same,reduction of cellular levels of Aβ,Aβ [7],45%-63%
same,effect on cell survival,[4],no effect
same,effect on proliferation,[4],no effect
same,TACE activity,TACE,small increases
same,ECE activity,[5],sustained increase
